# Assay results: patent US10765114B2, “4-amino-6-(pyridyl and 2-substitutedphenyl)-picolinates and 6-amino-2-(pyridyl and 2-substitutedphenyl)-pyrimidine-4-carboxylates and their use as herbicides” (Dow AgroSciences LLC, priority 2013, dated 2020)
# Read-outs that look alike come from different tables or passages of the source.
# What was measured:
# [1] = system: Key Broadleaf Weed and Crop Species; test: Post-Emergent Test II (Table 5); assay type: in vivo; details: post-emergence, 336 h; for pest or weed control at 70 g/ha: application rate 70 (kg ai/ha; footnote: g ai/ha); for pest or weed control at 140 g/ha: application rate 140 (kg ai/ha; footnote: g ai/ha)
# Method: (§1) Seeds or nutlets of the desired test plant species were planted in Sun Gro Metro-Mix® 360 planting mixture, which typically has a pH of 6.0 to 6.8 and an organic matter content of about 30 percent, in plastic pots with a surface area of 64 square centimeters. When required to ensure good germination and healthy plants, a fungicide treatment and/or other chemical or physical treatment was applied. The plants were grown for 7-21 days in a greenhouse with an approximate 15 h photoperiod which was maintained at about 23-29° C. during the day and 22-28° C. during the night. Nutrients and water were added on a regular basis and supplemental lighting was provided with overhead metal halide 1000-Watt lamps as necessary. The plants were employed for testing when they reached the first or second true leaf stage.
# (§2) A weighed amount, determined by the highest rate to be tested, of each test compound was placed in a 25 mL glass vial and was dissolved in 4 mL of a 97:3 v/v mixture of acetone and DMSO to obtain concentrated stock solutions. […] The concentrated stock solutions obtained were diluted with 20 mL of an aqueous mixture containing acetone, water, isopropyl alcohol, DMSO, Atplus 411F crop oil concentrate, and Triton® X-155 surfactant in a 48.5:39:10:1.5:1.0:0.02 v/v ratio to obtain spray solutions containing the highest application rates. Additional application rates were obtained by serial dilution of 12 mL of the high rate solution into a solution containing 2 mL of 97:3 v/v mixture of acetone and DMSO and 10 mL of an aqueous mixture containing acetone, water, isopropyl alcohol, DMSO, Atplus 411F crop oil concentrate, and Triton X-155 surfactant in a 48.5:39:10:1.5:1.0:0.02 v/v ratio to obtain ½×, ¼×, ⅛× and 1/16× rates of the high rate. Compound requirements are based upon a 12 mL application volume at a rate of 187 liters per hectare (L/ha). Formulated compounds were applied to the plant material with an overhead Mandel track sprayer equipped with 8002E nozzles calibrated to deliver 187 L/ha over an application area of 0.503 square meters at a spray height of 18 inches (43 cm) above the average plant canopy height. Control plants were sprayed in the same manner with the solvent blank.
# (§3) The treated plants and control plants were placed in a greenhouse as described above and watered by subirrigation to prevent wash-off of the test compounds. After 14 days, the condition of the test plants as compared with that of the untreated plants was determined visually and scored on a scale of 0 to 100 percent where 0 corresponds to no injury and 100 corresponds to complete kill and presented as indicated in Table A. Some of the compounds tested, application rates employed, plant species tested, and results are given in Table 5.
# [2] = system: Key Grass and Sedge Weeds as well as Grass Crops; test: Post-Emergent Test II (Table 6); assay type: in vivo; details: for Visual Growth Reduction (%) 14 Days After Application, CYPSS: CYPSS (CYPES: yellow nutsedge, Cyperus esculentus); for Visual Growth Reduction (%) 14 Days After Application, ECHSS: ECHSS (ECHCG: barnyardgrass, Echinochloa crus-galli); for Visual Growth Reduction (%) 14 Days After Application, ORYSS: ORYSS (ORYSA: rice, Oryza sativa); for Visual Growth Reduction (%) 14 Days After Application, ORYSS / Visual Growth Reduction (%) 14 Days After Application, TRZSS / Visual Growth Reduction (%) 14 Days After Application, ZEAMX: crop; for Visual Growth Reduction (%) 14 Days After Application, SORVU: SORVU: johnsongrass (Sorghum vulgare); for Visual Growth Reduction (%) 14 Days After Application, TRZSS: TRZSS (TRZAS: wheat, spring, Triticum aestivum); for pest or weed control at 140 g/ha: post-emergence, 336 h, 14 days after application
# Method: as §1, §2, §3
# [3] = Abutilon theophrasti, ABUTH: velvetleaf (Abutilon theophrasti), read-out: Visual Growth Reduction (%) 14 Days After Application ABUTH
# [4] = Amaranthus retroflexus, AMARE: redroot pigweed (Amaranthus retroflexus), read-out: Visual Growth Reduction (%) 14 Days After Application AMARE
# [5] = Brassica napus, BRSSS: oilseed rape, canola (Brassica napus), read-out: Visual Growth Reduction (%) 14 Days After Application BRSSS
# [6] = Chenopodium album, CHEAL: lambsquarters (Chenopodium album), read-out: Visual Growth Reduction (%) 14 Days After Application CHEAL
# [7] = Euphorbia heterophylla, EPHHL: wild poinsettia (Euphorbia heterophylla), read-out: Visual Growth Reduction (%) 14 Days After Application EPHHL
# [8] = Helianthus annuus, HELAN: sunflower (Helianthus annuus), read-out: Visual Growth Reduction (%) 14 Days After Application HELAN
# [9] = Viola tricolor, VIOTR: wild pansy (Viola tricolor), read-out: Visual Growth Reduction (%) 14 Days After Application VIOTR
structure (smiles),measurement,setting,value
"COC(=O)c1nc(-c2ccc(Cl)c(F)c2Cl)nc(N)c1OC [Compound 42, Methyl 6-amino-2-(2,4-dichloro-3-fluorophenyl)-5-methoxypyrimidine-4-carboxylate]",pest or weed control at 70 g/ha,[1]; [3],95 to 100%
same,pest or weed control at 140 g/ha,[1]; [3],95 to 100%
same,pest or weed control at 70 g/ha,[1]; [4],95 to 100%
same,pest or weed control at 140 g/ha,[1]; [4],95 to 100%
same,pest or weed control at 70 g/ha,[1]; [5],95 to 100%
same,pest or weed control at 140 g/ha,[1]; [5],95 to 100%
same,pest or weed control at 70 g/ha,[1]; [6],95 to 100%
same,pest or weed control at 140 g/ha,[1]; [6],95 to 100%
same,pest or weed control at 70 g/ha,[1]; [7],30 to 44%
same,pest or weed control at 140 g/ha,[1]; [7],60 to 74%
same,pest or weed control at 70 g/ha,[1]; [8],85 to 94%
same,pest or weed control at 140 g/ha,[1]; [8],85 to 94%
same,pest or weed control at 70 g/ha,[1]; [9],60 to 74%
same,pest or weed control at 140 g/ha,[1]; [9],60 to 74%
same,"Visual Growth Reduction (%) 14 Days After Application, CYPSS",[2]; 70 g ai/ha,A (95-100)
same,"Visual Growth Reduction (%) 14 Days After Application, CYPSS",[2]; 140 g ai/ha,A (95-100)
same,"Visual Growth Reduction (%) 14 Days After Application, DIGSA","[2]; DIGSA: crabgrass (Digitaria sanguinalis), 70 g ai/ha",G (0-29)
same,"Visual Growth Reduction (%) 14 Days After Application, DIGSA","[2]; DIGSA: crabgrass (Digitaria sanguinalis), 140 g ai/ha",G (0-29)
same,"Visual Growth Reduction (%) 14 Days After Application, ECHSS",[2]; 70 g ai/ha,G (0-29)
same,"Visual Growth Reduction (%) 14 Days After Application, ECHSS",[2]; 140 g ai/ha,G (0-29)
same,"Visual Growth Reduction (%) 14 Days After Application, ORYSS",[2]; 70 g ai/ha,G (0-29)
same,"Visual Growth Reduction (%) 14 Days After Application, ORYSS",[2]; 140 g ai/ha,G (0-29)
same,"Visual Growth Reduction (%) 14 Days After Application, SETFA","[2]; SETFA: giant foxtail (Setaria faberi), 70 g ai/ha",G (0-29)
same,"Visual Growth Reduction (%) 14 Days After Application, SETFA","[2]; SETFA: giant foxtail (Setaria faberi), 140 g ai/ha",G (0-29)
same,"Visual Growth Reduction (%) 14 Days After Application, SORVU",[2]; 70 g ai/ha,G (0-29)
same,"Visual Growth Reduction (%) 14 Days After Application, SORVU",[2]; 140 g ai/ha,F (30-44)
same,"Visual Growth Reduction (%) 14 Days After Application, TRZSS",[2]; 70 g ai/ha,F (30-44)
same,"Visual Growth Reduction (%) 14 Days After Application, TRZSS",[2]; 140 g ai/ha,E (45-59)
same,"Visual Growth Reduction (%) 14 Days After Application, ZEAMX","[2]; ZEAMX: maize, corn (Zea mays), 70 g ai/ha",G (0-29)
same,"Visual Growth Reduction (%) 14 Days After Application, ZEAMX","[2]; ZEAMX: maize, corn (Zea mays), 140 g ai/ha",G (0-29)
Nc1c(F)c(-c2ccc(C(F)(F)F)nc2F)nc(C(=O)O)c1Cl [Compound 26],pest or weed control at 140 g/ha,[1]; [3],0 to 29%
same,pest or weed control at 140 g/ha,[1]; [4],0 to 29%
same,pest or weed control at 140 g/ha,[1]; [5],0 to 29%
same,pest or weed control at 140 g/ha,[1]; [6],0 to 29%
same,pest or weed control at 140 g/ha,[1]; [7],0 to 29%
same,pest or weed control at 140 g/ha,[1]; [8],45 to 59%
same,pest or weed control at 140 g/ha,[1]; [9],0 to 29%
same,pest or weed control at 140 g/ha,"[2]; CYPSS, 140 g ai/ha, read-out: Visual Growth Reduction (%) 14 Days After Application CYPSS",0 to 29%
same,pest or weed control at 140 g/ha,"[2]; DIGSA: crabgrass (Digitaria sanguinalis), 140 g ai/ha, read-out: Visual Growth Reduction (%) 14 Days After Application DIGSA",0 to 29%
same,pest or weed control at 140 g/ha,"[2]; ECHSS, 140 g ai/ha, read-out: Visual Growth Reduction (%) 14 Days After Application ECHSS",0 to 29%
same,pest or weed control at 140 g/ha,"[2]; ORYSS (crop), 140 g ai/ha, read-out: Visual Growth Reduction (%) 14 Days After Application ORYSS",0 to 29%
same,pest or weed control at 140 g/ha,"[2]; SETFA: giant foxtail (Setaria faberi), 140 g ai/ha, read-out: Visual Growth Reduction (%) 14 Days After Application SETFA",0 to 29%
same,pest or weed control at 140 g/ha,"[2]; SORVU: grain sorghum (Sorghum vulgare), 140 g ai/ha, read-out: Visual Growth Reduction (%) 14 Days After Application SORVU",0 to 29%
same,pest or weed control at 140 g/ha,"[2]; TRZSS (crop), 140 g ai/ha, read-out: Visual Growth Reduction (%) 14 Days After Application TRZSS",0 to 29%
same,pest or weed control at 140 g/ha,"[2]; ZEAMX: maize, corn (Zea mays), 140 g ai/ha, read-out: Visual Growth Reduction (%) 14 Days After Application ZEAMX",0 to 29%
